# Source: article PMC3706879, “The neurotrophic compound J147 reverses cognitive impairment in aged Alzheimer's disease mice” (Alzheimer's Research & Therapy, 2013)
# Assays:
# mice [1] = test: feeding throughout pregnancy to mice; type: in vivo; settings: 10 mg/kg/day throughout pregnancy
# [2] = body weights and food consumption of aged APPswe/PS1ΔE9 mice; type: in vivo; settings: 20-month-old APPswe/PS1ΔE9 mice, 200 ppm (10 mg/kg/day) in food, three months, measured weekly
# Description: (§1) The APPswe/PS1ΔE9 transgenic mice have been previously characterized. The line 85 mice carry two transgenes, the mouse/human chimeric APP/Swe, linked to Swedish FAD and human PS1ΔE9. At 20 months of age both male and female transgenic mice were fed a high fat diet (Harlan Tekland, Madison, WI, USA) with and without J147 (200 ppm, 10 mg/kg/day). Treatment continued for three months and was followed by behavior testing and sacrifice of mice for tissue harvesting. […] (Data not shown).
# huAPP/PS1 mice = test: fear conditioning assay in aged huAPP/PS1 mice; type: in vivo; settings: 200 ppm in food for three months
# Description: as §1
# Fear conditioning to either a cue or a context represents a form of associative learning. The read-out that is measured in contextual and cued fear conditioning is a freezing response that occurs following the pairing of an unconditioned stimulus (US), such as a foot shock, with a conditioned stimulus (CS), such as a particular context or cue (tone). The mouse will freeze if it remembers and associates that environment with the aversive stimulus. […] On Day 2, the time spent freezing is measured over the entire time in the chamber. […] The percentage of time spent freezing by each mouse is averaged per group and then groups can be compared and P-values calculated to determine statistical significance. On Day 3, the percentage of time spent freezing during the two tones is averaged per group, and then groups can be compared and P-values calculated to determine statistical significance. […]
# mice [3] = settings: mouse, in vivo
# neuroprotection assays = test system: neuroprotection assays; parameters: method as in PMID 22194796; settings: cited from earlier work
# APP/swePS1ΔE9 mice = test system: APP/swePS1ΔE9 mice; parameters: method as in PMID 22194796; settings: cited from earlier work
# BDNF = test system: BDNF; parameters: method as in PMID 22194796; settings: normal rats; cited from earlier work
smiles,measurement,setting,value
"COc1cccc(/C=N/N(C(=O)C(F)(F)F)c2ccc(C)cc2C)c1 [J147, (E)-N-(2,4-dimethylphenyl)-2,2,2-trifluoro-N'-(3methoxybenzyli-dene) acetohydrazide]",offspring after feeding throughout pregnancy,mice [1],normal
same,mouse body weights and food consumption,[2],no significant differences between the groups
same,"contextual fear conditioning, freezing Day 2",huAPP/PS1 mice,rescued
same,"cued fear conditioning, freezing Day 3",huAPP/PS1 mice,no significant difference between the groups
same,addiction,mice [3],no addiction
same,EC50,neuroprotection assays,< 100 nM
same,loss of synaptic proteins and cognitive decline,APP/swePS1ΔE9 mice; administered to three-month-old APP/swePS1ΔE9 mice for seven months,prevents the loss of synaptic proteins and cognitive decline
same,levels of BDNF in the hippocampus,APP/swePS1ΔE9 mice; huAPP/PS1 transgenic mice,increases the levels of BDNF
same,levels of BDNF in the hippocampus,BDNF,increases the levels of BDNF
